Among the test systems are A498 renal; ACHN renal; M14 melanoma; SK-MEL-2 melanoma; SR leukemia; TK-10 renal; UACC-257 melanoma.
Test in all cases: NCI anticancer screen, dose series, 48 h

The structures appear in SMILES notation.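 Growth conditions: 96-well plates. Treatment: test compound, 48 hours, 5 concentrations. Analysis: linear interpolation between bracketing concentrations; unreached endpoints set to highest concentration. TGI denotes the concentration required for complete inhibition of growth.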

`O=C(N[C@H]1CCC[C@H]1C(=O)Nc1ccc(C(F)(F)F)cc1)OCc1ccccc1`: the TGI in the experiment on A498 renal, in the experiment with ACHN renal, in the experiment with M14 melanoma, in the experiment with SK-MEL-2 melanoma, in the experiment with SR leukemia and with TK-10 renal was > 100 µM throughout. Also, the TGI with UACC-257 melanoma was > 100 µM.

`O=C(/C=C/c1ccccc1)Oc1cccc(Br)c1`: the TGI in the experiment with A498 renal was > 100 µM; in the experiment on ACHN renal it was > 100 µM; with M14 melanoma it was > 100 µM; with SK-MEL-2 melanoma it was > 100 µM; with SR leukemia, 59.3 µM; in the experiment with TK-10 renal, > 100 µM. Besides, in the experiment with UACC-257 melanoma, the TGI is > 100 µM.

For `Cn1cnc(SC2=C3C(=O)C=C4S[C@H]5C[C@]42c2c(c(O)c4c6c2=[N+]3CCC=6C=N4)N5)c1CC(N)C(=O)O` (stereo partly specified), the TGI in the experiment with A498 renal is 36.5 µM; in the experiment with ACHN renal, 29.5 µM; with M14 melanoma, 29.1 µM; with SK-MEL-2 melanoma it was 28.2 µM; in the experiment on SR leukemia it was 48.8 µM; in the experiment with TK-10 renal, > 100 µM. This compound also gave a TGI with UACC-257 melanoma of 29.9 µM.

The values are drawn from PubChem BioAssay (NCI).
